Assays:
cells = conditions: Homo sapiens, MCF-10A, read-out: MCF10A IC50
H1047R PIK3CA enzyme = H1047R PIK3CA enzyme (Homo sapiens, UniProt P42336, H1047R); test: ADP-Glo Biochemical PIK3CA Kinase Assay
Chain of H1047R PIK3CA enzyme (P42336 whole entry H1047R): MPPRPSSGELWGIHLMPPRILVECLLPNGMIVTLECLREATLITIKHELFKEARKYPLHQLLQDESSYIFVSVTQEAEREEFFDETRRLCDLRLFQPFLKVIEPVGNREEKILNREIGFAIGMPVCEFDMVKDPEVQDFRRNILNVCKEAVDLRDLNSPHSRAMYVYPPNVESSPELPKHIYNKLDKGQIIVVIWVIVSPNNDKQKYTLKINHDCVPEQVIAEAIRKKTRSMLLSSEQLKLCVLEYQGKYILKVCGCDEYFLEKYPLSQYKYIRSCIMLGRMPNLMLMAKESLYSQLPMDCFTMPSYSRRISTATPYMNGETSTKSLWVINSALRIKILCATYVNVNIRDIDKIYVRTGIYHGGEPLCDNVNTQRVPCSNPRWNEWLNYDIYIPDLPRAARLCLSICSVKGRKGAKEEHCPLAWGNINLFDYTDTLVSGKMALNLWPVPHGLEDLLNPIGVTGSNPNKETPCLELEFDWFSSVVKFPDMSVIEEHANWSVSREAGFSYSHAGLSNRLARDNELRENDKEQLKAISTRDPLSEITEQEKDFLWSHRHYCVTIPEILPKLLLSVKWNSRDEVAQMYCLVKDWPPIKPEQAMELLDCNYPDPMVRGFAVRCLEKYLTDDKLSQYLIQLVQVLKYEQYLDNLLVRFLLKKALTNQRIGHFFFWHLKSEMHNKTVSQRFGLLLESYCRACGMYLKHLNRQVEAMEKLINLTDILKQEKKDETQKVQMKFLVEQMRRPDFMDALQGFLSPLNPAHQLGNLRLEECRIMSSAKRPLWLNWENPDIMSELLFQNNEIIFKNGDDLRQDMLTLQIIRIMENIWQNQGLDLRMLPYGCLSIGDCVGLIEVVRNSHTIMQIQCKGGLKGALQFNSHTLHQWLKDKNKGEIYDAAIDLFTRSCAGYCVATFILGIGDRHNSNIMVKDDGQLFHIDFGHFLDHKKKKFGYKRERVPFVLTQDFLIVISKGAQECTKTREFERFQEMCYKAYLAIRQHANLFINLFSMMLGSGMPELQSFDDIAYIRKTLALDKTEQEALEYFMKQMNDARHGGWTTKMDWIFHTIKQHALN
Chain of H1047R PIK3CA enzyme (P27986 whole entry partner): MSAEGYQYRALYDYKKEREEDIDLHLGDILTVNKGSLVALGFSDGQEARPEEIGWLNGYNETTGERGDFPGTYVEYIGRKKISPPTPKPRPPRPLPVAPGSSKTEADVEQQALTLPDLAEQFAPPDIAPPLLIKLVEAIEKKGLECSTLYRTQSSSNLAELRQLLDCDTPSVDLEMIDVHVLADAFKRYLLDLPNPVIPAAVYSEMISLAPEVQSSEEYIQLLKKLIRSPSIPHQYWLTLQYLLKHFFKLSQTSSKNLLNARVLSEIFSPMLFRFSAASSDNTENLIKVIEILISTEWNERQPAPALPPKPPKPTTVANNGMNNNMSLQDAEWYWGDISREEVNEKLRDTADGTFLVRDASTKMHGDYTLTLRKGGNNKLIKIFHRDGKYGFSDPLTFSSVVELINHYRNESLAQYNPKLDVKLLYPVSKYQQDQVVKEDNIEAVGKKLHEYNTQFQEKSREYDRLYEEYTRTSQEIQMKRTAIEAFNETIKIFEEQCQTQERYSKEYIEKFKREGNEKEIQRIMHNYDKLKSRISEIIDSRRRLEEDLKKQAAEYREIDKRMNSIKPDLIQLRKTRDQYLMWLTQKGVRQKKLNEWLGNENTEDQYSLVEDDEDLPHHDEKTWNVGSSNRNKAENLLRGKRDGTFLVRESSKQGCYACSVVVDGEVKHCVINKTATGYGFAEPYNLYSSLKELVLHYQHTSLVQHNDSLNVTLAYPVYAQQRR

Question: Which IC50 (cells) does the source give for `N#Cc1ncc(-c2cc(NC(=O)c3cc(F)cc(C(F)(F)F)c3)c3c(c2)C(=O)N[C@@H]3c2cc(F)ccc2Cl)cn1` [Compound I-980] here?
Answer: The IC50 was under 1000 nM.

Question: And the IC50 (H1047R PIK3CA enzyme)?
Answer: The IC50 was at most 100 nM.

Question: Which IC50 (cells) does the source give for `CC(C)(O)c1cc(NC(=O)c2nsc3ccccc23)c2c(c1)C(=O)N[C@H]2c1cc(F)ccc1Cl` [Compound I-192] here?
Answer: The IC50 was under 1000 nM.

Question: And the IC50 (H1047R PIK3CA enzyme)?
Answer: The IC50 was at most 100 nM.

Question: Which IC50 (cells) does the source give for `Cc1ccccc1[C@@H]1NC(=O)c2cc(C(=O)NCC(F)F)cc(NC(=O)c3nsc4ccccc34)c21` [Compound I-166] here?
Answer: The IC50 was under 1000 nM.

Question: And the IC50 (H1047R PIK3CA enzyme)?
Answer: The IC50 was at most 100 nM.

Question: With `O=C(Nc1cc(-c2cnn3cccnc23)cc2c1C(c1cc(F)ccc1Cl)NC2=O)c1cc(F)cc(C(F)(F)F)c1` (stereo not shown) [Compound I-1046] as the compound, how does the IC50 (cells) read?
Answer: The IC50 was under 1000 nM.

Question: What about the IC50 (H1047R PIK3CA enzyme) of the same compound?
Answer: Its IC50 is at most 100 nM.

Question: Which IC50 (cells) does the source give for `O=C(Nc1cc(-c2ccnc3ccccc23)cc2c1C(c1cc(F)ccc1Cl)NC2=O)c1cc(F)cc(C(F)(F)F)c1` (stereo not shown) [Compound I-934] here?
Answer: Its IC50 is under 1000 nM.

Question: And the IC50 (H1047R PIK3CA enzyme)?
Answer: The IC50 was at most 100 nM.

Question: Which results are given for `Cn1cccc(-c2cc(NC(=O)c3cc(F)cc(C(F)(F)F)c3)c3c(c2)C(=O)NC3c2cc(F)ccc2Cl)c1=O` (stereo not shown) [Compound I-901]?
Answer: IC50 (cells): 1000 to 5000 nM; IC50 (H1047R PIK3CA enzyme): 100 to 500 nM

Question: What does the source list for `O=C(Nc1cc(NC2=N[C@@H](C(F)(F)F)CO2)cc2c1[C@H](c1cc(F)ccc1Cl)NC2=O)c1cc(F)cc(C(F)(F)F)c1` (single isomer, unassigned) [Compound I-2388]?
Answer: IC50 (cells): 1000 to 5000 nM; IC50 (H1047R PIK3CA enzyme): ≤ 100 nM

Question: Which results are given for `O=C(Nc1cc(-c2cn[nH]c2)nc2c1C(c1cc(F)ccc1Cl)NC2=O)c1cc(F)cc(C(F)(F)F)c1` (stereo not shown) [Compound I-161]?
Answer: IC50 (cells): 1000 to 5000 nM; IC50 (H1047R PIK3CA enzyme): ≤ 100 nM

Question: For `CNC(=O)c1cc(NC(=O)c2cc(F)cc(C(F)(F)F)c2)c2c(c1)C(=O)NC2c1cc(F)ccc1Cl` (stereo not shown) [Compound I-493], which IC50 (cells) is on record?
Answer: Its IC50 is under 1000 nM.

Question: What about the IC50 (H1047R PIK3CA enzyme) of the same compound?
Answer: The IC50 was at most 100 nM.

Question: Which results are given for `Cc1nn(C)cc1Nc1cc(NC(=O)c2cc(F)cc(C(F)(F)F)c2)c2c(c1)C(=O)NC2c1cc(F)ccc1Cl` (stereo not shown) [Compound I-924]?
Answer: IC50 (cells): < 1000 nM; IC50 (H1047R PIK3CA enzyme): ≤ 100 nM

Question: For `CC(C)(CN)n1cc(-c2cc(NC(=O)c3cc(F)cc(C(F)(F)F)c3)c3c(c2)C(=O)NC3c2cc(F)ccc2Cl)cn1` (stereo not shown) [Compound I-2186], which IC50 (cells) is on record?
Answer: The IC50 was 1000 to 5000 nM.

Question: What about the IC50 (H1047R PIK3CA enzyme) of the same compound?
Answer: Its IC50 is at most 100 nM.

Question: With `CNc1cc(NC(=O)N2C[C@@](O)(C(F)(F)F)c3cc(F)ccc32)c2c(c1)C(=O)N[C@@H]2c1cc(F)ccc1Cl` (single isomer, unassigned) [Compound I-2640] as the compound, how does the IC50 (cells) read?
Answer: Its IC50 is under 1000 nM.

Question: And the IC50 (H1047R PIK3CA enzyme)?
Answer: Its IC50 is at most 100 nM.

Question: What does the source list for `Cn1cc2cc(-c3cc(NC(=O)c4cc(F)cc(C(F)(F)F)c4)c4c(c3)C(=O)NC4c3cc(F)ccc3Cl)ccc2n1` (stereo not shown) [Compound I-1029]?
Answer: IC50 (cells): < 1000 nM; IC50 (H1047R PIK3CA enzyme): ≤ 100 nM

Question: Which results are given for `N#Cc1ccc(-c2cc(NC(=O)c3cc(F)cc(C(F)(F)F)c3)c3c(c2)C(=O)N[C@@H]3c2cc(F)ccc2Cl)cn1` (single isomer, unassigned) [Compound I-1000]?
Answer: IC50 (cells): < 1000 nM; IC50 (H1047R PIK3CA enzyme): ≤ 100 nM

Question: Which results are given for `O=C(Nc1cc(-c2ccncc2F)cc2c1[C@@H](c1cc(F)ccc1Cl)NC2=O)c1cc(F)cc(C(F)(F)F)c1` (stereo in doubt) [Compound I-986]?
Answer: IC50 (cells): < 1000 nM; IC50 (H1047R PIK3CA enzyme): ≤ 100 nM

Question: With `Cn1nc(-c2cc(NC(=O)c3cc(F)cc(C(F)(F)F)c3)c3c(c2)C(=O)NC3c2cc(F)ccc2Cl)ccc1=O` (stereo not shown) [Compound I-1076] as the compound, how does the IC50 (cells) read?
Answer: Its IC50 is under 1000 nM.

Question: And the IC50 (H1047R PIK3CA enzyme)?
Answer: Its IC50 is at most 100 nM.

Question: Which results are given for `O=C1N[C@H](c2cc(F)ccc2Cl)c2c(NC(=O)N3C[C@@](O)(C(F)(F)F)c4cc(F)ccc43)cc(Cl)nc21` (single isomer, unassigned) [Compound I-2703]?
Answer: IC50 (cells): < 1000 nM; IC50 (H1047R PIK3CA enzyme): ≤ 100 nM

Question: Which IC50 (cells) does the source give for `O=C(Nc1cc(-n2cccn2)cc2c1[C@H](c1cc(F)ccc1Cl)NC2=O)c1cc(F)cc(C(F)(F)F)c1` [Compound I-1069] here?
Answer: The IC50 was under 1000 nM.

Question: And the IC50 (H1047R PIK3CA enzyme)?
Answer: The IC50 was at most 100 nM.

Question: What does the source list for `O=C(Nc1cc(-c2ncco2)cc2c1C(c1cc(F)ccc1Cl)NC2=O)c1cc(F)cc(C(F)(F)F)c1` (stereo not shown) [Compound I-915]?
Answer: IC50 (cells): < 1000 nM; IC50 (H1047R PIK3CA enzyme): ≤ 100 nM

Question: For `O=C1N[C@H](c2cc(F)ccc2Cl)c2c(NC(=O)N3C[C@H](O)c4cc(F)ccc43)cc(-c3ccc(=O)n(C(F)F)c3)cc21` (single isomer, unassigned) [Compound I-2448], which IC50 (cells) is on record?
Answer: The IC50 was 1000 to 5000 nM.

Question: And the IC50 (H1047R PIK3CA enzyme)?
Answer: The IC50 was at most 100 nM.

Question: Which IC50 (cells) does the source give for `O=C(Nc1cc(-c2cc3cnccc3[nH]2)cc2c1C(c1cc(F)ccc1Cl)NC2=O)c1cc(F)cc(C(F)(F)F)c1` (stereo not shown) [Compound I-949] here?
Answer: Its IC50 is 1000 to 5000 nM.

Question: What about the IC50 (H1047R PIK3CA enzyme) of the same compound?
Answer: Its IC50 is at most 100 nM.

Question: With `O=C1N[C@@H](c2cc(F)ccc2Cl)c2c(NC(=O)N3C[C@](O)(C(F)(F)F)c4cc(F)ccc43)ccc(-n3cccn3)c21` (single isomer, unassigned) [Compound I-2497] as the compound, how does the IC50 (cells) read?
Answer: The IC50 was under 1000 nM.

Question: And the IC50 (H1047R PIK3CA enzyme)?
Answer: Its IC50 is at most 100 nM.

Question: With `C[S+]([O-])Cc1cc(NC(=O)c2cc(F)cc(C(F)(F)F)c2)c2c(c1)C(=O)NC2c1cc(F)ccc1Cl` (stereo not shown) [Compound I-962] as the compound, how does the IC50 (cells) read?
Answer: The IC50 was under 1000 nM.

Question: What about the IC50 (H1047R PIK3CA enzyme) of the same compound?
Answer: The IC50 was at most 100 nM.

Question: What does the source list for `CNc1nc2ccc(-c3cc(NC(=O)c4cc(F)cc(C(F)(F)F)c4)c4c(c3)C(=O)NC4c3cc(F)ccc3Cl)cn2n1` (stereo not shown) [Compound I-2125]?
Answer: IC50 (cells): < 1000 nM; IC50 (H1047R PIK3CA enzyme): ≤ 100 nM

Question: For `Cc1ccccc1C1NC(=O)c2cc(N)cc(NC(=O)c3cc(F)cc(C(F)(F)F)c3)c21` (stereo not shown) [Compound I-40], which IC50 (cells) is on record?
Answer: Its IC50 is 1000 to 5000 nM.

Question: What about the IC50 (H1047R PIK3CA enzyme) of the same compound?
Answer: Its IC50 is at most 100 nM.

Question: What does the source list for `O=C(Nc1cc(N2CCOCC2)cc2c1C(c1cc(F)ccc1Cl)NC2=O)c1cc(F)cc(C(F)(F)F)c1` (stereo not shown) [Compound I-1164]?
Answer: IC50 (cells): < 1000 nM; IC50 (H1047R PIK3CA enzyme): ≤ 100 nM
